Measured values published in patent US9701716B2, “Water buffalo derived dimeric peptide containing proline for antibiotic therapies” (Centaur, Inc., priority 2014, dated 2017).
Where two headings read alike, the source gives them in different places. No end group written: not given here.

What was measured:
Staphylococcus aureus [1] = format: cell-based
Method: Additional antimicrobial agents were evaluated for antimicrobial activity, including 23 computationally-derived analogues of SEQ ID NO: 3. These analogues were grouped into two functional series, including those synthesized for improved helicity (Table 2; A-P) and those synthesized for enhanced activity (Table 2; IND, Q-T, and W-X). The antimicrobial activity of the synthetic analogues provided in Table 2 were evaluated using standard techniques such as those described in Sang, et al. 2007 Dev. Comp. Immunol., and herein incorporated by reference. […] The additional antimicrobial agent analogs optimized for helical stability in Example 2 (Table 3) were evaluated for antimicrobial activity. The antimicrobial activity of the synthetic analogues provided in Table 3 were evaluated using standard techniques such as those described in Sang, et al. 2007 Dev. Comp. Immunol., and herein incorporated by reference.

Staphylococcus aureus [2] = format: cell-based; remark: listed apart in the source
Method: (§1) The antimicrobial agents disclosed are derivatives of SEQ. ID. NO.: 3, having 14 amino acids and a broad spectrum of antimicrobial activity. The antimicrobial agents of the disclosure were synthesized and analyzed to evaluate antimicrobial activity. Initially, the antimicrobial agent of SEQ ID NO.: 3 was evaluated for inhibition of clinical isolates of common mastitis pathogens (Table 1).
(§2) The additional antimicrobial agent analogs optimized for helical stability in Example 2 (Table 3) were evaluated for antimicrobial activity. The antimicrobial activity of the synthetic analogues provided in Table 3 were evaluated using standard techniques such as those described in Sang, et al. 2007 Dev. Comp. Immunol., and herein incorporated by reference.
(§3) The antimicrobial activity of SEQ ID NO. 8 was further evaluated against clinical isolates of mastitis-causing bacteria (Table 5).

[3] = system: Streptococcus dysgalactiae; format: cell-based
Method: as §1, §2, §3

Klebsiella pneumoniae = format: cell-based
Method: as §1, §2, §3

Staphylococcus aureus [4] = test: Mastitis mouse model, CFU in mammary glands; format: in vivo, Balb/c mice; details: 32 μg per gland intra-mammarily, every 24 hrs for 3 days from 24 hours post-infection; Kruskal-Wallis with Dunn's post-test, 5% level of significance
Method: The antimicrobial agent of SEQ ID NO: 8 was evaluated using an in vivo model of bacterial infection to assess the antimicrobial activity of the agent. The following methods and materials were used.
Staphylococcus aureus was isolated from milk from dairy cows with clinical mastitis (Livestock Disease Diagnostic Center, University of Kentucky. Lexington, Ky.). Upon arrival, bacteria were striped on blood agar plates (TSA+5% sheep blood from Remel, Kansas City. Mo.) and cultured at 37° C. for 24 hrs. A fresh single bacterial colony picked from the agar plate was inoculated into 10 ml of Muller Hinton II broth (MHB) and cultured at 37° C. for 4-6 hrs. until reaching an absorbance of 0.8 with a 625 nm spectrophotometer filter. At this absorbance, the MHB has been documented to contain 1×10^5 colony forming units (CFU) in a 50 μl volume.
For the experiment, 56 female Balb/c mice (BW˜[…]) at 7-10 days of lactation were used. Four groups of n=14 mice were used for each experiment as described below. For intramammary inoculation the protocol described by Chandler was followed (J. Med. Microbiol. V3; 273-282: 1970) with minor modifications. […]
All mice were euthanized (using CO2) following the AVMA euthanasia guidelines 24 hours after the last treatment. […] Dilutions (10^−1, 10^−2, and 10^−3) of the homogenates were plated quantitatively to determine the number of CFU per gland. […]

Escherichia coli = format: cell-based
Method: as §2, §3

Corynebacterium species = test: MIC against clinical isolates of mastitis pathogens; format: cell-based; details: clinical isolate 404-C18, Corynebacterium species, multidrug resistance ++
Method: as §1, §2, §3

[5] = Staphylococcus aureus, first duplicate
[6] = Staphylococcus aureus, second duplicate

| Substance | MIC duplicates (Staphylococcus aureus [1]; [5]) | MIC duplicates (Staphylococcus aureus [1]; [6]) | further results |
| --- | --- | --- | --- |
| GLTRILLRLLLRFG (Antimicrobial peptide sequence) [WB14-O4, antimicrobial agent optimized for helical stability] | 256,256 μg/ml | 256,256 μg/ml |  |
| SLVRILLRLLLRFG (Antimicrobial peptide sequence) [WB14-O3, antimicrobial agent optimized for helical stability] | 128,128 μg/ml | 128,128 μg/ml |  |
| GLVRILLRLLLRYG (Antimicrobial peptide sequence) [WB14-O5, antimicrobial agent optimized for helical stability] | 64 µg/mL | 128 µg/mL |  |
| GLARILLRLLFFRG [WB14-F1, GLARILLRLLFFRG] |  |  | MIC duplicates (Staphylococcus aureus [1]): 8.0,8.0 μg/ml |
| GLPWILLRWLFFRG [WB14-A, GLPWILLRWLFFRG] |  |  | MIC (Staphylococcus aureus [2]): 25.0 µM; MIC [3]: 12.5 µM; MIC (Klebsiella pneumoniae): 25.0 µM |
| GLVRILLRLLFRFG (Antimicrobial peptide sequence) [WB14-O1, antimicrobial agent optimized for helical stability] | 64 µg/mL | 128 µg/mL |  |
| GLARILLRLLFRFG (Antimicrobial peptide sequence) [WB14-N1, antimicrobial agent optimized for helical stability] | 128,128 μg/ml | 128,128 μg/ml |  |
| H-GLARILLRWLFFRG-OH [WB14-F, GLARILLRWLFFRG] |  |  | antimicrobial activity compared with other peptides (in words) (Staphylococcus aureus [1]; Staphylococcus aureus MIC comparison): most efficacious antimicrobial synthetic peptide; colony forming units (CFU) per mammary gland versus control groups (Staphylococcus aureus [4]): a difference between the WB-14F versus the three control groups; MIC (Escherichia coli): 4.0 µg/mL; MIC (Corynebacterium species): 16.0 µg/mL; MIC [3]: 8.0 µg/mL; MIC (Klebsiella pneumoniae): 16.0 µg/mL |
| GLVRILLRLLLRFG (Antimicrobial peptide sequence) [WB14-O2, antimicrobial agent optimized for helical stability] | 256 µg/mL | 128 µg/mL |  |
| GLARILLRWLFRFG [WB14-N, GLARILLRWLFRFG] |  |  | MIC duplicates (Staphylococcus aureus [1]): 4.0,4.0 μg/ml |
| GLVRILLRLLLRFS [WB14-O6, GLVRILLRLLLRFS] |  |  | MIC duplicates (Staphylococcus aureus [1]): >256, >256 μg/ml |
